Broadly, the Papp A→B is how fast a substance crosses the layer from the apical side. For orientation: IC50 means the point on the concentration scale where inhibition reaches its midpoint.

Here are results for 24 molecules from ChEMBL document CHEMBL3351526, “Structure-based optimization of non-peptidic Cathepsin D inhibitors” (Bioorg Med Chem Lett, 2014).

Data set [1] in a line: Stability in rat liver microsomes assessed as intrinsic clearance. The data set is classed as ADME. The following applies: read-out: CLH. For orientation: Microsomes from liver hold many membrane-bound enzymes, among them those of drug oxidation.
A short description of data set [2]: Apparent permeability across apical to basolateral side in human Caco2 cells. The class given is ADME, cell-based. The note with it: Caco-2. On the technique in general: Caco-2 cells form a polarised layer with tight junctions and transporters.
For data set [3], the target named is T1, Cathepsin D (Bos taurus, UniProt P80209).
T1 sequence (P80209 whole entry): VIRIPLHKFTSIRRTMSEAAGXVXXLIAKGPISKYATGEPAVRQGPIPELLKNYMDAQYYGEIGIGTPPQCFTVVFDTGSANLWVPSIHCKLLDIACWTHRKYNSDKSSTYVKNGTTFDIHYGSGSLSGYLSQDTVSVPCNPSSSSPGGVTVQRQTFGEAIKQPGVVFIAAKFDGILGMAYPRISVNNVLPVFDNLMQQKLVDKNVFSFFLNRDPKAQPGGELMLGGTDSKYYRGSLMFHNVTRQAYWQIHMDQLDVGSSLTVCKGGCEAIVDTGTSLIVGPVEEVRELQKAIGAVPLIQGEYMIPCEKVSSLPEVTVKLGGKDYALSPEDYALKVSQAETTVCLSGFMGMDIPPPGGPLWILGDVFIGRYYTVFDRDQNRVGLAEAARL
Briefly: Inhibition of cathepsin D in bovine cartilage explants assessed as reduction in sulphated GAGs level after 3 days by spectrophotometric 1,9-dimethylmethylene blue shift assay based glycosaminoglycan release method.

Data set [4] in a line: Stability in human liver microsomes assessed as intrinsic clearance. The note with it: read-out: CLH. The class given is ADME.
The next data set has as its target T2, Renin (Homo sapiens, UniProt P00797).
T2 sequence (P00797 whole entry): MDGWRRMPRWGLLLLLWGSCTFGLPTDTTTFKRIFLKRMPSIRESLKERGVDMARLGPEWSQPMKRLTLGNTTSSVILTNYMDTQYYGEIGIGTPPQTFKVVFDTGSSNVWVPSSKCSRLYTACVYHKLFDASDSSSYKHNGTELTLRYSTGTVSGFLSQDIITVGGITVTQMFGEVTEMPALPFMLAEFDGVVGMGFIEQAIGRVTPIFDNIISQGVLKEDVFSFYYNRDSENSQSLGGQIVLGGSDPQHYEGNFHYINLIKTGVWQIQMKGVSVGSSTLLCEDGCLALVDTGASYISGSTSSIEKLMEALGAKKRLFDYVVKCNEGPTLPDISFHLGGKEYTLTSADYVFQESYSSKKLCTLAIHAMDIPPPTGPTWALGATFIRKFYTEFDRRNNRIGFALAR
Briefly: Inhibition of human recombinant renin using quenched Dabcyl-g-Abu-IHPFHLVIHT-Edans peptide substrate by fluorescence-based assay.

The target of the next data set is T3, Cathepsin D (Bos taurus) (UniProt P80209).
T3 sequence (whole entry): T1 sequence (P80209 whole entry)
Briefly: Inhibition of cathepsin D in bovine cartilage explants assessed as reduction in sulphated GAGs level at <1 uM after 3 days by spectrophotometric 1,9-dimethylmethylene blue shift assay based glycosaminoglycan release method.

Data set [5] concerns the target T4, Cathepsin D (Homo sapiens, UniProt P07339). In words: Inhibition of human liver cathepsin D using MCA-labeled GKPILFFRLK(Dnp)-D-R-NH2 peptide by fluorescence-based assay.
The target of data set [6] is T4, Cathepsin D.
The nature of data set [7]: Stability in mouse liver microsomes assessed as intrinsic clearance. The class given is ADME. The following applies: read-out: CLH.
Data set [8] is described as follows: Inhibition of pepsin (unknown origin). Also on record: species or system Homo sapiens.

The source made the active and inactive calls. No cut-off for these calls is given here.

T4 sequence (P07339 65-162 limits assumed): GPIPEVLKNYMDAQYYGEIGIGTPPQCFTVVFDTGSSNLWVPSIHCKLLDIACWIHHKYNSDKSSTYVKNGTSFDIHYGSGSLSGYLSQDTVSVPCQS
T4 sequence (P07339 169-412 limits assumed): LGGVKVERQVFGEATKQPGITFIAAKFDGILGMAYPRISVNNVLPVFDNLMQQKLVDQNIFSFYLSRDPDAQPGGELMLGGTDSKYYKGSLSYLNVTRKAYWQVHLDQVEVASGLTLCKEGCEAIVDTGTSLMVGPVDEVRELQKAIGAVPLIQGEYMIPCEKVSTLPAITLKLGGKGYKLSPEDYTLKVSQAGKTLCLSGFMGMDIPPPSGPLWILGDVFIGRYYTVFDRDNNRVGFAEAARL

As to `COc1cc(CNC(=O)[C@@H](CC2CCCCC2)NC(=N)NC(=O)Cc2ccc(OC)c(OC)c2)ccc1F`, the figures for the microsomal CLint in data set [1] and in data set [4] were 241 µL/min/mg and above 1000 µL/min/mg, respectively. Moreover, the Papp A→B in [2] turned out to be 5 ×10⁻⁶ cm/s. For the same molecule, the values for the IC50 on Cathepsin D [3] and on Renin were 0.5 µM and 16 µM, respectively.

As to `COc1cc(CC(=O)NC(=N)NCc2ccc(Cl)cc2)c([N+](=O)[O-])cc1OC`, at Cathepsin D (Bos taurus), the inhibition result was “inactive”. The IC50 at Cathepsin D [5] was 1.5 µM; on Renin it was above 30 µM.

`COc1ccc(CC(=O)NC(=N)N[C@H](CC2CCCCC2)C(=O)NCc2ccc(F)c(F)c2)cc1OC` displayed an IC50 against Cathepsin D [5] of 0.17 µM.

Take `COc1cc(Br)c(C(=O)N[C@@H](Cc2cccc(Oc3ccccc3)c2)[C@@H](O)CN(CCc2ccc(Cl)cc2Cl)C(=O)CCN2C(=O)c3ccccc3C2=O)cc1OC`: at Cathepsin D (Bos taurus), the inhibition entry is “inactive”. The same molecule had an IC50 at Cathepsin D [6] of 0.085 µM.

In the case of `COc1cc(Br)c(CC(=O)NC(=N)N[C@H](CC2CCCCC2)C(=O)NCc2cccc(-c3nnn[nH]3)c2)cc1OC`, the microsomal CLint came out at 33 µL/min/mg in data set [1], 240 µL/min/mg in [4] and 40 µL/min/mg in data set [7].

For `COc1cc(CC(=O)NC(=N)NCc2ccc(Cl)c(Cl)c2)c([N+](=O)[O-])cc1OC`, the inhibition result on Cathepsin D (Bos taurus) was “inactive”. The IC50 was 0.44 µM on Cathepsin D [5] and above 30 µM on Renin.

Take `COc1cc(CCCC(=O)NC(=N)NCc2ccccc2)c([N+](=O)[O-])cc1OC`: the values for the IC50 on Cathepsin D [5] and on Renin were 18 µM and above 30 µM, respectively.

On to `COc1ccc(CCC(=O)NC(=N)NCc2ccccc2)cc1OC`, for which the IC50 was 25 µM on Cathepsin D [5] and 20 µM on Renin.

For the molecule `COc1ccc(CC(=O)NC(=N)NCc2ccc(N)cc2)cc1OC`, the IC50 at Cathepsin D [5] is 29 µM; at Renin, above 30 µM.

For the molecule `COc1ccc(CC(=O)NC(=N)N[C@H](CC(C)C)C(=O)NCc2ccc(-c3nnn[nH]3)cc2)cc1OC`, the microsomal CLint in data set [1] was below 10 µL/min/mg; in [4] it was 69 µL/min/mg; in data set [7], below 10 µL/min/mg.

For `COc1ccc(CC(=O)NC(=N)N[C@H](CC2CCCCC2)C(=O)NCc2ccc(-c3nnn[nH]3)cc2)cc1OC`, the microsomal CLint in data set [1] is 38 µL/min/mg; in data set [4], 76 µL/min/mg; in data set [7], below 10 µL/min/mg. In addition, the Papp A→B in [2] is 0.25 ×10⁻⁶ cm/s. At Cathepsin D [3], the IC50 is 1.8 µM.

On to `COc1ccc(CNC(=O)[C@@H](Cc2ccccc2)NC(=N)NC(=O)Cc2ccc(OC)c(OC)c2)cc1OC`, for which the values for the microsomal CLint in data set [1] and in [4] were 384 µL/min/mg and above 1000 µL/min/mg, respectively. Further, the IC50 on Cathepsin D [3] was 0.33 µM; on Renin it was above 30 µM.

Take `COc1cc(CC(=O)NC(=N)NCc2ccccc2Cl)c([N+](=O)[O-])cc1OC`: the inhibition entry at Cathepsin D (Bos taurus) was “inactive”. In addition, the results for the IC50 against Cathepsin D [5] and on Renin were 3 µM and above 30 µM, respectively.

As for `COc1cc(Br)c(CC(=O)NC(=N)N[C@H](CC(C)C)C(=O)NCc2cccc(-c3nnn[nH]3)c2)cc1OC`, the results for the microsomal CLint in data set [1], in data set [4] and in [7] were 17 µL/min/mg, 107 µL/min/mg and 38 µL/min/mg, respectively.

`CC(C)CC(=O)N[C@H](C(=O)N[C@H](C(=O)N[C@@H](CC(C)C)[C@@H](O)CC(=O)N[C@@H](C)C(=O)N[C@@H](CC(C)C)[C@@H](O)CC(=O)O)C(C)C)C(C)C` [PEPSTATIN] registered a concentration for half-maximal inhibition (IC50) in data set [8] of 0.0001 µM.

On to `COc1ccc(Cl)c(CC(=O)NC(=N)NCc2ccccc2)c1`, for which the figures for the IC50 against Cathepsin D [5] and on Renin were 6.1 µM and above 30 µM, respectively.

Consider `COc1ccc(CC(=O)NC(=N)N[C@H](CC(C)C)C(=O)NCc2ccc(-c3nnn[nH]3)c(F)c2)cc1OC`, for which the microsomal CLint is below 10 µL/min/mg in [1] and 54 µL/min/mg in data set [4].

Take `COc1cc(CNC(=O)[C@@H](CC2CCCCC2)NC(=N)NC(=O)Cc2cc(OC)c(OC)cc2Br)ccc1F`: the values for the microsomal CLint in data set [1] and in [4] were 823 µL/min/mg and above 1000 µL/min/mg, respectively. Besides, the concentration for half-maximal inhibition (IC50) on Cathepsin D [3] is 0.9 µM; on Renin it was above 30 µM.

Regarding `COc1ccc(CNC(=N)NC(=O)Cc2cc(OC)c(OC)cc2[N+](=O)[O-])cc1OC`, at Cathepsin D (Bos taurus), the inhibition entry is “inactive”. Further, the IC50 is 2.7 µM against Cathepsin D [5] and above 30 µM at Renin.

As to `COc1cc(CC(=O)NC(=N)NCc2ccccc2)c([N+](=O)[O-])cc1OC`, the IC50 at Cathepsin D [5] was 10 µM; at Renin, above 30 µM.

`COc1ccc(CNC(=O)[C@@H](CC2CCCCC2)NC(=N)NC(=O)Cc2ccc(OC)c(OC)c2)cc1F`: at Renin, the half-inhibitory concentration (IC50) worked out at 13 µM.

In the case of `COc1ccc(CC(=O)NC(=N)NCc2ccc(C)cc2)cc1OC`, at Cathepsin D (Bos taurus), the inhibition entry is “inactive”. Also, the concentration for half-maximal inhibition (IC50) on Cathepsin D [5] was 1.9 µM; at Renin, above 30 µM.

Regarding `COc1cc(CNC(=O)[C@@H](CC(C)C)NC(=N)NC(=O)Cc2ccc(OC)c(OC)c2)ccc1F`, the microsomal CLint turned out to be 148 µL/min/mg in [1] and 966 µL/min/mg in data set [4]. For the same molecule, the IC50 was 0.62 µM at Cathepsin D [3] and 8.7 µM on Renin.

Take `COc1ccc(CNC(=O)[C@@H](CC(C)C)NC(=N)NC(=O)Cc2ccc(OC)c(OC)c2)cc1OC`: the microsomal CLint in data set [1] was 143 µL/min/mg; in data set [4], 262 µL/min/mg.
